The source of these data is patent US4588722A, “N-(4-piperidinyl) bicyclic condensed 2-imidazolamine derivatives” (priority 1984, dated 1986).

Structures can show the parent of a compound that is named as a salt.

For the first assay, the system named is compound 48/80-induced lethality in rats. Nature of the assay: Protection of rats from compound 48/80-induced lethality. Conditions: Rattus norvegicus, 4 h, read-out: Compound 48/80 lethality test in rats-ED50. Type of assay: in vivo, rat (male, inbred Wistar strain). The source says:
PROTECTION OF RATS FROM COMPOUND 48/80-INDUCED LETHALITY
Compound 48/80, a mixture of oligomers obtained by condensation of 4-methoxy-N-methylbenzeneethanamine and formaldehyde has been described as a potent histamine releasing agent (Int. Arch. Allergy, 13, 336 (1958)). The protection from compound 48/80-induced lethal circulatory collapse appears to be a simple way of evaluating quantitatively the antihistaminic activity of test compounds. Male rats of an inbred Wistar strain, weighing 240-260 g were used in the experiment. After overnight starvation the rats were transferred to conditioned laboratories (temp.=21±1° C., relative humidity=65±5%). The rats were treated subcutaneously or orally with a test compound or with the solvent (NaCl solution, 0.9%). One hour after treatment there was injected intravenously compound 48/80, freshly dissolved in water, at a dose of 0.5 mg/kg (0.2 ml/100 g of body weight). In control experiments, wherein 250 solvent-treated animals were injected with the standard dose of compound 48/80, not more than 2.8% of the animals survived after 4 hours. Survival after 4 hours is therefore considered to be a safe criterion of a protective effect of drug administration.
Said ED50 -values are the values in mg/kg body weight at which the tested compounds protect 50% of the tested animals against compound 48/80-induced lethality.
Consider `N=C(NCCN1CCC(Nc2nc3ccccc3n2Cc2ccc(F)cc2)CC1)N[N+](=O)[O-]` [Compound 23, N-[2-[4-[[1-[(4-fluorophenyl)methyl]-1H-benzimidazol-2-yl]amino]-1-piperidinyl]ethyl]-N'-nitroguanidine], for which the ED50 worked out at 0.08 mg/kg.

Still in this assay, the particulars now being: Rattus norvegicus; test compound subcutaneously or orally (route of each value not given) 1 hour before compound 48/80 0.5 mg/kg intravenously; dose protecting 50% of animals, survival after 4 hours; read-out: Compound 48/80 lethality test in rats-ED50.
As for `C=COCCN1CCC(Nc2nc3ccccc3n2Cc2ccc(F)cc2)CC1` [Compound 1, N-[1-[2-(ethenyloxy)ethyl]-4-piperidinyl]-1-(4-fluorophenylmethyl)-1H-benzimidazol-2-amine], the ED50 worked out at 0.08 mg/kg. As for `COc1ccc(CCN2CCC(Nc3nc4ncccc4n3Cc3ccc(F)cc3)CC2)cc1` [Compound 2, 1-[(4-fluorophenyl)methyl]-N-[1-[2-(4-methoxyphenyl)ethyl]-4-piperidinyl]-1H-imidazo[4,5-b]pyridin-2-amine], the ED50 came to 0.08 mg/kg. Regarding `COc1ccc(CCN2CCC(Nc3nc4cnccc4n3Cc3ccc(F)cc3)CC2)cc1` [Compound 3, 1-[(4-fluorophenyl)methyl]-N-[1-[2-(4-methoxyphenyl)ethyl]-4-piperidinyl]-1H-imidazo[4,5-c]pyridin-2-amine], the ED50 came to 0.16 mg/kg. On to `O=c1cc[nH]c(=O)n1CCN1CCC(Nc2nc3ccccc3n2Cc2ccc(F)cc2)CC1` [Compound 5, 3-[2-[4-[[1-[(4-fluorophenyl)methyl]-1H-benzimidazol-2-yl]amino]-1-piperidinyl]ethyl]-2,4-(1H,3H)-pyrimidinedione], for which the ED50 came out at 0.08 mg/kg. The same measure, in the same setting: then `O=c1oc2ccccc2cc1CCN1CCC(Nc2nc3ccccc3n2Cc2cscn2)CC1` [Compound 6, 3-[2-[4-[[1-(4-thiazolylmethyl)-1H-benzimidazol-2-yl]amino]-1-piperidinyl]ethyl]-2H-1-benzopyran-2-one dihydrochloride.sesquihydrate], with 0.16 mg/kg; and `O=c1oc2ccccc2cc1CCN1CCC(Nc2nc3cccnc3n2Cc2ccccn2)CC1` [Compound 7, 3-[2-[4-[[3-(2-pyridinylmethyl)-3H-imidazo[4,5-b]pyridin-2-yl]amino]-1-piperidinyl]ethyl]-2H-1benzopyran-2-one trihydrochloride.dihydrate], with 0.04 mg/kg. On the same count and under the same terms, then `O=c1oc2ccccc2cc1CCN1CCC(Nc2nc3ccccc3n2Cc2cccs2)CC1` [Compound 8, 3-[2-[4-[[1-(2-thienylmethyl)-1H-benzimidazol-2-yl]amino]-1-piperidinyl]ethyl]-2H-1-benzopyran-2-one], with 0.16 mg/kg; and `O=c1oc2ccccc2cc1CCN1CCC(Nc2nc3ccccc3n2Cc2ccccn2)CC1` [Compound 9, 3-[2-[4-[[1-(2-pyridinylmethyl)-1H-benzimidazol-2-yl]amino]-1-piperidinyl]ethyl]-2H-1-benzopyran-2-one dihydrochloride.dihydrate], with 0.08 mg/kg.

With `O.O=c1oc2ccccc2cc1CCN1CCC(Nc2nc3ccccc3n2Cc2cccnc2)CC1` [Compound 10, 3-[2-[4-[[1-(3-pyridinylmethyl)-1H-benzimidazol-2-yl]amino]-1-piperidinyl]ethyl]-2H-1-benzopyran-2-one monohydrate], the ED50 is 0.31 mg/kg. Turning to `O=c1oc2ccccc2cc1CCN1CCC(Nc2nc3ccccc3n2Cc2ccc(F)cc2)CC1` [Compound 12, 3-[2-[4-[[1-[(4-fluorophenyl)methyl]-1H-benzimidazol-2-yl]amino]-1-piperidinyl]ethyl]-2H-1-benzopyran-2-one], the ED50 was determined as 0.16 mg/kg. Still for that read-out and setting: then `COc1ccc(CCN2CCC(Nc3nc4ccccc4n3Cc3cnccn3)CC2)cc1` [Compound 13, N-[1-[2:(4-methoxyphenyl)ethyl]-4-piperidinyl]-1-[(2-pyrazinyl)methyl]-1H-benzimidazol-2-amine], with 0.04 mg/kg. Still for that read-out and setting: then `O.O=c1oc2ccccc2cc1CCN1CCC(Nc2nc3ccccc3n2Cc2ccco2)CC1` [Compound 14, 3-[2-[4-[[1-(2-furanylmethyl)-1H-benzimidazol-2-yl]amino]-1-piperidinyl]ethyl]-2H-1-benzopyran-2-one monohydrate], with 0.08 mg/kg. As for `O=c1oc2ccccc2cc1CCN1CCC(Nc2nc3cccnc3n2Cc2ccco2)CC1` [Compound 15, 3-[2-[4-[[3-(2-furanylmethyl)-3H-imidazo[4,5-b]pyridin-2-yl]amino]-1-piperidinyl]ethyl]-2H-1-benzopyran-2-one], the ED50 was found to be 0.01 mg/kg. On to `O.O=c1oc2ccccc2cc1CCN1CCC(Nc2nc3cccnc3n2Cc2ccc(F)cc2)CC1` [Compound 16, 3-[2-[4-[[3-[(4-fluorophenyl)methyl]-3H-imidazo [4,5-b]pyridin-2-yl]-amino]-1-piperidinyl]ethyl]-2H-1-benzopyran-2-one monohydrate], for which the ED50 worked out at 0.04 mg/kg.

Turning to `COc1ccc(CCN2CCC(Nc3nc4ccccc4n3Cc3cscn3)CC2)cc1` [Compound 17, N-[1-[2-(4-methoxyphenyl)ethyl]-4-piperidinyl]-1-(4-thiazolyl)-methyl)-1H-benzimidazol-2-amine dihydrobromide. dihydrate], the ED50 is 0.08 mg/kg. Consider `Cc1nccn1CCN1CCC(Nc2nc3ccccc3n2Cc2ccc(F)cc2)CC1` [Compound 20, 1-[(4-fluorophenyl)methyl]-N-[1-[2-(2-methyl-1H-imidazol-1-yl)ethyl]-4-piperidinyl]-1H-benzimidazol-2-amine], for which the ED50 was 0.31 mg/kg. On to `CSC(=NC#N)NCCN1CCC(Nc2nc3cccnc3n2Cc2ccc(F)cc2)CC1` [Compound 21, S-methyl N'-cyano-N-[2-[4-[[3-[(4-fluorophenyl)methyl]-3H-imidazo[4,5-b]pyridin-2-yl]amino]-1-piperidinyl]ethyl]carbamimidothioate], for which the ED50 was determined as 0.16 mg/kg. The same measure, in the same setting: then `COC(CNC(=NC#N)NCCN1CCC(Nc2nc3ccccc3n2Cc2ccc(F)cc2)CC1)OC.O=C(O)/C=C/C(=O)O.O=C(O)/C=C/C(=O)O` [Compound 24, N"-cyano-N-(2,2-dimethoxyethyl)-N'-[2-[4-[[1-[(4-fluorophenyl)methyl]-1H-benzimidazol-2-yl]amino]-1-piperidinyl]ethyl]guanidine (E)-2-butenedioate(1:2)], with 0.16 mg/kg; and `CN(C)C(=NC#N)NCCN1CCC(Nc2nc3ccccc3n2Cc2ccc(F)cc2)CC1` [Compound 25], with 0.08 mg/kg; and `N#CN=C(NCCN1CCOCC1)NCCN1CCC(Nc2nc3ccccc3n2Cc2ccc(F)cc2)CC1` [Compound 26, N"-cyano-N-[2-[4-[[1-[(4-fluorophenyl)methyl]-1H-benzimidazol-2-yl]-aminol]-1-piperidinyl]ethyl]-N'-[2-(4-morpholinyl)ethyl]guanidine monohydrate], with 0.16 mg/kg. As to `Fc1ccc(Cn2c(NC3CCN(CCNC(=S)N4CCOCC4)CC3)nc3ccccc32)cc1` [Compound 28, N-[2-[4-[[1-[(4-fluorophenyl)methyl]-1H-benzimidazol-2-yl]amino]-1-piperidinyl]ethyl]-4-morpholinecarbothioamide], the ED50 came out at 0.16 mg/kg. On to `O.OCCCNC(=S)NCCN1CCC(Nc2nc3ccccc3n2Cc2ccc(F)cc2)CC1` [Compound 30, N-[2-[4-[[1-[(4-fluorophenyl)methyl]-1H-benzimidazol-2-yl]amino]-1-piperidinyl]ethyl]-N'(3-hydroxypropyl)thiourea monohydrate], for which the ED50 turned out to be 0.08 mg/kg.

With `CN(C)C(=S)NCCN1CCC(Nc2nc3ccccc3n2Cc2ccc(F)cc2)CC1` [Compound 31], the ED50 turned out to be 0.08 mg/kg.
